What was measured:
MCF-7 cells = assay: Rhodamine-123 mitochondrial membrane potential assay, MCF-7; format: cell-based, human; conditions: 24 h
Procedure: [Worded in the source for another cell line; this cell line is reported under the same test.] Mitochondrial membrane potential changes (ΔΨm) were determined by flow cytometry using rhodamine-123 (green-fluorescent dye)[32]. MIA PaCa-2 pancreatic cancer cells (1 × 10^6 cells/well) were exposed to the isolated compound (5 µM) for 24 h. Further, rhodamine-123 (200 nM) was added to the cells, which were kept in dark for 35 min. The cells were further centrifuged and the pellet was washed with phosphate buffered saline (1 ml). The intensity of fluorescence in the cells represented the mitochondrial membrane potential change (ΔΨm), which was measured using a flow cytometer.

caspase-8 [1] = assay: Caspase-8 colorimetric assay, MCF-7; format: cell-based, human; conditions: MCF-7 cells; data not showed
Procedure: (§1) Caspases-3, -8 and -9 assays were measured according to manufacturer’s instructions using a caspase colorimetric protease kit (Abcam, Cambridge, MA, USA). Cells were treated with compounds for 48 h. The cells were lysed by the addition of 50 μL of chilled cell lysis buffer and incubated on ice for 10 min. The resulting cell lysate was centrifuged for 1 min at 10,000 g, and the supernatant was collected. The cell lysate containing […] of protein was incubated with […] of 4 mmol/L pNA-conjugated substrates (DEVD-pNA, IETD-pNA and LEHD-pNA; substrates for caspase-3, -8 and -9, respectively) at 37 °C for 3 h. The amount of pNA released was measured at 405 nm using an ELISA microplate reader (Bio rad). The caspases activity was expressed as fold difference, [33].

Bax [2] = assay: Quantification of Bax (immunometric assay), HL-60; format: cell-based, human; conditions: HL-60 cells; compared to untreated cells
Procedure: (§2) Bax protein concentration determination was carried out using the Human Bax Enzyme Immunometric Assay kit (Assay Designs, Ann Arbor, MI, USA). The lysate (sample) preparation was carried out according to the manual. Following centrifugation (16,000 g for 15 min), the cells were resuspended in Modified Cell lysis buffer 4 [0.5 μL/mL of Sigma Protease Inhibitor Cocktail and 1 mM phenylmethylsulfonyl fluoride (PMSF)]. Cell lysate (100 μL) (sample) was added into the wells coated with monoclonal antibody to human Bax-α in triplicate. The plate was tapped gently to mix the contents. The sample was incubated at room temperature on a plate shaker for 1 h. The wells were emptied and washed with 5X wash buffer. After the final wash, the plate was tapped gently on a lint free paper towel to remove any remaining wash buffer. The sample was incubated again for 1 h at room temperature on a plate shaker after the addition of 100 μL of specific antibody (biotinylated monoclonal antibody to Bax-α) into each well. The wells were washed again with 5X wash buffer and emptied. Next, 100 μL of blue conjugate (streptavidin conjugated to horseradish peroxidase) was added into each well. […] The optical densities were read at 450 and 570 nm using an ELISA reader. Bax protein concentration was determined from the standard protein graphic using the optical densities of the samples[32].

cytosolic cytochrome c [3] = assay: Cytosolic cytochrome c estimation (ELISA), HL-60; format: cell-based, human; conditions: HL-60 cells; cytosolic fraction
Procedure: (§3) Cells were collected by centrifugation at 600 g for 5 min at 4 °C. The cell pellets were washed once with ice-cold PBS and resuspended in cytosol extraction buffer (20 mM Hepes-KOH, pH 7.5, 10 mM KCl, 1.5 mM MgCl2, 1 mM sodium EDTA, 1 mM sodium EGTA, 1 mM dithiothreitol and 0.1 mM PMSF) containing 250 mM sucrose on ice for 10 min. The cells were homogenized with the grinder on ice. Further, the homogenates were centrifuged at 700 g for 10 min at 4 °C. The supernatants were centrifuged at 10,000 × g for 30 min at 4 °C. Supernatant was collected as cytosolic fraction.
(§4) Cytosolic cytochrome c levels were determined using quantitative sandwich enzyme immunoassay using microplate reader. Sample or standard (100 μL) was added into each well and incubated for 2 h at room temperature. The wells were washed several times with wash buffer. The plate was inverted and cleaned with paper toweling. Cytochrome c conjugate (200 μL) was added into each well and incubated for 2 h at room temperature. Wells were washed several times with wash buffer. Substrate solution (200 μL) was added into each well and incubated for 30 min at room temperature. Finally, stop solution (50 μL) was added into wells. The optical density (absorbance) of each well was determined using microplate reader at a 450 nm wavelength.

caspase-9 = assay: Caspase-9 colorimetric assay, HL-60; format: cell-based, human; conditions: HL-60 cells
Procedure: as §1

caspase-8 [4] = assay: Caspase-8 colorimetric assay, HL-60; format: cell-based, human; conditions: HL-60 cells; data not showed
Procedure: as §1

[5] = test system: HeLa cervical cancer cells; assay: MTT antiproliferative assay, HeLa; format: cell-based; conditions: Homo sapiens, MTT assay, cancer cell line, mean of three independent experiments ± S.E.M., read-out: IC50 HeLa Cervical
[6] = test system: MCF-7 breast cancer cells; assay: Quantification of apoptosis (Annexin V-PI), MCF-7; format: cell-based, human; conditions: MCF-7 cells, 5 and 10 µM, 24 h
Source text: (§5) Apoptotic population of cancer cells was quantified by Annexin V-propidium iodide (PI) staining technique (Abcam, Cambridge, MA, USA) using a flow cytometer as per published technique.

caspase-3 = assay: Caspase-3 colorimetric assay, HL-60; format: cell-based, human; conditions: HL-60 cells
Procedure: as §1

cytosolic cytochrome c [7] = assay: Cytosolic cytochrome c estimation (ELISA), MCF-7; format: cell-based, human; conditions: MCF-7 cells; 5, 10 µM
Procedure: as §3, §4

HL-60 cells = assay: Cell cycle analysis (PI, flow cytometry), HL-60; format: cell-based, human; conditions: 24 h
Procedure: (§6) Cancer cells (1 × 10^6/ml) were treated with different concentrations of compound (5 and10 µM) for 24 h, fixed in cold 70% alcohol in PBS, washed, digested with DNase free RNase (400 µg/mL) at 37 °C for 45 min and stained with propidium iodide (10 µg/ml). Cells were analyzed for PI-DNA fluorescence by flow cytometerically using FACS CALIBUR (Becton Dickinson, Franklin Lakes, New Jersey, USA)[28]–[30]. The fluorescence intensity of subG0/GI cell fraction represents the dead cell population.

Bax [8] = assay: Quantification of Bax (immunometric assay), MCF-7; format: cell-based, human; conditions: MCF-7 cells; compared to untreated cells
Procedure: as §2

HL-60 cancer cells = assay: Quantification of apoptosis (Annexin V-PI), HL-60; format: cell-based, human; conditions: HL-60 cells
Source text: as §5

[9] = test system: DU145 prostate cancer cells; assay: MTT antiproliferative assay, DU145; format: cell-based; conditions: Homo sapiens, DU-145; MTT assay; cancer cell line; mean of three independent experiments ± S.E.M.; read-out: IC50 DU145 Prostate
MCF-7 cancer cells = assay: Cell cycle analysis (PI, flow cytometry), MCF-7; format: cell-based, human; conditions: MCF-7 cells; 5 and 10 µM; 24 h
Procedure: as §6

- effect on caspase-8 activity (caspase-8 [1]): did not show considerable effect
- effect on caspase-9 activity (caspase-9): enhanced caspase-3 and -9 activities
- effect on caspase-8 activity (caspase-8 [4]): did not exhibit considerable effect
- IC50 [5]: 7.85 ± 0.57 µM
- effect on caspase-3 activity (caspase-3): enhanced caspase-3 and -9 activities
- IC50 [9]: 10.8 ± 0.42 µM
Compound: COc1cc(CO)ccc1OC1OC(COC(=O)c2ccc(F)cc2)C(O)C(O)C1O (stereo not shown) [Compound 9f, (6-(4-(hydroxymethyl)-2-methoxyphenoxy)-tetrahydro-3,4,5-trihydroxy-2H-pyran-2-yl)methyl 4-fluorobenzoate]
- mitochondria membrane potential loss (MCF-7 cells; 5 µM): 41.33 ± 1.43%
- mitochondria membrane potential loss (MCF-7 cells; 10 µM): 52.67 ± 2.33%
- effect on Bax protein levels (Bax [2]): increase in Bax protein levels
- effect on cytosolic cytochrome c levels (cytosolic cytochrome c [3]): dose dependently increased
- apoptotic cell population [6]: dose-dependent increase in the early apoptotic to late apoptotic population
- effect on cytosolic cytochrome c levels (cytosolic cytochrome c [7]): dose dependently increased
- effect on cell cycle distribution (HL-60 cells): cell cycle arrest at G0/G1 phase
- effect on Bax protein levels (Bax [8]): dose dependently increased
- apoptotic cell population (HL-60 cancer cells): increase in the early apoptotic to late apoptotic cells in a dose-dependent fashion
- effect on cell cycle distribution (MCF-7 cancer cells): cell cycle arrest at G0/G1 phase

Source: article PMC5559490, “Synthesis of Saccharumoside-B analogue with potential of antiproliferative and pro-apoptotic activities” (Scientific Reports, 2017)
